In one assay the test system is A. baumannii A472. As to the kind of experiment: MIC determination for Acinetobacter strains (Example 3). To be noted: LEV R, CIP R, MRP I, IMP I, AMK R, TET R. In kind it is cell-based.
Assay [1] has as its system A. baumannii A390. The description is as above. In kind it is cell-based. The following applies: LEV R, CIP R, MRP R, IPM I, AMK R, TET I.
In another assay the test system is E. coli IMP. As to the kind of experiment: microbe, parasite or virus in culture. The following applies: Escherichia coli, read-out: MIC E. coli IMP.
Assay [2] concerns 11 strains of A. baumannii and one strain of Acinetobacter sp. As to the kind of experiment: Preliminary MBC without and with sub-inhibitory polymyxin B, whole panel (Example 4; also strains not listed separately). It is filed as cell-based. To be noted: Acinetobacter baumannii, read-out: MBC without PB.
For a further assay, the system named is A. baumannii J2. As to the kind of experiment: MIC determination for Acinetobacter strains (Example 3). In kind it is cell-based. The following applies: LEV R, CIP R.
The next assay deals with S. epidermis 12228. As to the kind of experiment: MIC, standard panel of Gram-positive and Gram-negative bacteria (CLSI). It is filed as cell-based, Staphylococcus epidermis. The following applies: Staphylococcus, 12228; CAMHB; read-out: MIC S. epidermis 12228.
Assay [3] concerns A. baumannii A489. As to the kind of experiment: MIC determination for Acinetobacter strains (Example 3). It is filed as cell-based. To be noted: LEV R, CIP R, MRP R, IMP R, AMK R, TET R.
Another assay deals with A. baumannii A473. Described as above. The following applies: LEV R, CIP R, MRP R, IMP R, AMK R, TET R. In kind it is cell-based.
A further assay has as its system S. aureus 25923. As to the kind of experiment: MIC, standard panel of Gram-positive and Gram-negative bacteria (CLSI). In kind it is cell-based, Staphylococcus aureus. To be noted: Staphylococcus aureus, 25923; CAMHB; read-out: MIC S. aureus 25923.
Assay [4] concerns A. baumannii A387. As to the kind of experiment: Preliminary MBC without and with sub-inhibitory polymyxin B (Example 4). It is filed as cell-based, Acinetobacter baumannii. The following applies: Acinetobacter baumannii, A387, A. baumannii A387, without polymyxin B, read-out: MBC without PB.
In assay [5] the test system is A. baumannii A387. As to the kind of experiment: MIC determination for Acinetobacter strains (Example 3). In kind it is cell-based. The following applies: LEV I, CIP R, IPM R, AMK R, TET R.
A further assay deals with P. aeruginosa 27853. As to the kind of experiment: MIC, standard panel of Gram-positive and Gram-negative bacteria (CLSI). It is filed as cell-based, Pseudomonas aeruginosa. To be noted: Pseudomonas aeruginosa, 27853; CAMHB; read-out: MIC P. aeruginosa 27853.
For another assay, the system named is B. thailandensis. As to the kind of experiment: microbe, parasite or virus in culture. It is filed as cell-based, Burkholderia thailandensis. The following applies: Burkholderia thailandensis, read-out: MIC90 B. thailandensis.
The subject of assay [6] is A. baumannii A387. As to the kind of experiment: MIC without and with sub-inhibitory polymyxin B (Example 4). In kind it is cell-based, Acinetobacter baumannii. To be noted: Acinetobacter baumannii, A387, A. baumannii A387, without polymyxin B, read-out: MIC without PB.
The subject of assay [7] is A. baumannii A390. The description is as above. The following applies: Acinetobacter baumannii, A390, A. baumannii A390; without polymyxin B; 1st experiment; read-out: MIC without PB. It is filed as cell-based, Acinetobacter baumannii.
The test system of a further assay is A. Baumanii OXA-51. As to the kind of experiment: MIC, panel of quinolone-resistant strains (CLSI). It is filed as cell-based. The following applies: Acinetobacter baumannii; CIP R, ESBL.
A further assay deals with S. aureus SMITH. As to the kind of experiment: MIC, panel of quinolone-resistant strains (CLSI). It is filed as cell-based. The following applies: Staphylococcus aureus; CIP R.
For a further assay, the system named is A. baumannii A329. As to the kind of experiment: MIC determination for Acinetobacter strains (Example 3). It is filed as cell-based. To be noted: LEV R, CIP R, MRP R, IMP R, AMK R, TET R.
The subject of another assay is E. coli 25922. As to the kind of experiment: MIC, standard panel of Gram-positive and Gram-negative bacteria (CLSI). It is filed as cell-based, Escherichia coli. To be noted: Escherichia coli, 25922; CAMHB; read-out: MIC E. coli 25922.
Assay [8] concerns A. baumannii A489. As to the kind of experiment: Preliminary MBC without and with sub-inhibitory polymyxin B (Example 4). In kind it is cell-based, Acinetobacter baumannii. To be noted: Acinetobacter baumannii, A489, A. baumannii A489, without polymyxin B, read-out: MBC without PB.
The next assay deals with S. aureus 25923 HS. As to the kind of experiment: MIC, standard panel of Gram-positive and Gram-negative bacteria (CLSI). To be noted: Staphylococcus aureus, CAMHB, HS, read-out: MIC S. aureus 25923 HS. In kind it is cell-based.
The test system of the next assay is S. pneumoniae 1027. As to the kind of experiment: MIC, panel of quinolone-resistant strains (CLSI). It is filed as cell-based. The following applies: Streptococcus pneumoniae, LEV R.

Each structure is given as a SMILES string. In brackets after ≈: the same amount, converted by molar mass. Where two headings read alike, the source gives them in different places.

`Cc1c(-c2cc(F)c(N)cc2F)ccn2c(=O)c(C(=O)O)cc(C3CC3)c12` [Compound 2, 8-(3,6-difluoro-4-amino-phenyl)-1-cyclopropyl-9-methyl-4-oxo-quinolizine-3-carboxylic acid]: the MIC is 4 µg/mL (≈ 10.8 µM) against A. baumannii A472; 8 µg/mL (≈ 21.6 µM) in the assay with A. baumannii A390 [1]; less than 0.008 µg/mL in the assay with E. coli IMP; 4 µg/mL (≈ 10.8 µM) against A. baumannii J2; less than 0.008 µg/mL in the assay with S. epidermis 12228; 2 µg/mL (≈ 5.4 µM) against A. baumannii A489 [3]. Further, the MIC is 8 µg/mL (≈ 21.6 µM) with A. baumannii A473; less than 0.008 µg/mL in the assay with S. aureus 25923; 0.5 µg/mL (≈ 1.35 µM) with A. baumannii A387 [5]; 2 µg/mL (≈ 5.4 µM) with P. aeruginosa 27853; 0.5 µg/mL (≈ 1.35 µM) in the assay with A. baumannii A387 [6] (1st experiment); 1 µg/mL (≈ 2.7 µM) with A. baumannii A387 [6] (2nd experiment, visual reading). Also, the MIC was 8 µg/mL (≈ 21.6 µM) in the assay on A. baumannii A390 [7]; 4 µg/mL (≈ 10.8 µM) in the assay on A. Baumanii OXA-51; less than 0.03 µg/mL against S. aureus SMITH; 8 µg/mL (≈ 21.6 µM) against A. baumannii A329; less than 0.03 µg/mL in the assay on E. coli 25922. The MBC – broadly, the smallest concentration meeting the test's criterion for killing – in assay [2] (A. baumannii A14, without polymyxin B, 1st experiment) amounted to 16 µg/mL (≈ 43.2 µM); in [2] (A. baumannii A14, without polymyxin B, 2nd experiment), 16 µg/mL (≈ 43.2 µM); in assay [2] (NCTC13301, A. baumannii NCTC 13301, without polymyxin B, 1st experiment) it was 8 µg/mL (≈ 21.6 µM); in [2] (NCTC13301, A. baumannii NCTC 13301, without polymyxin B, 2nd experiment) it was 32 µg/mL (≈ 86.4 µM); with A. baumannii A387 [4] (2nd experiment), 1 µg/mL (≈ 2.7 µM); in the assay on A. baumannii A489 [8] (1st experiment), 2 µg/mL (≈ 5.4 µM). The MBC in the assay with A. baumannii A489 [8] (2nd experiment) was 4 µg/mL (≈ 10.8 µM). Further, the MIC90 with B. thailandensis was less than 0.048 µg/mL.
Take `Cc1c(-c2cc(Cl)c(N)c(Cl)c2)ccn2c(=O)c(C(=O)O)cc(C3CC3)c12` [Compound 3, 8-(3,5-dichloro-4-amino-phenyl)-1-cyclopropyl-9-methyl-4-oxo-quinolizine-3-carboxylic acid]: the MIC in the assay on A. baumannii A472 was 32 µg/mL (≈ 79.4 µM); with A. baumannii J2, 8 µg/mL (≈ 19.8 µM); with A. baumannii A489 [3] it was 4 µg/mL (≈ 9.92 µM); in the assay on A. baumannii A473, 4 µg/mL (≈ 9.92 µM); with S. aureus 25923 it was less than 0.008 µg/mL; against A. baumannii A387 [5], 1 µg/mL (≈ 2.48 µM). For the same molecule, the MIC in the assay with P. aeruginosa 27853 was 2 µg/mL (≈ 4.96 µM); with A. baumannii A387 [6] (1st experiment), 1 µg/mL (≈ 2.48 µM); in the assay on A. baumannii A387 [6] (2nd experiment, visual reading), 1 µg/mL (≈ 2.48 µM); with S. aureus 25923 HS, 1 µg/mL (≈ 2.48 µM); against A. Baumanii OXA-51, 8 µg/mL (≈ 19.8 µM); with A. baumannii A329 it was 16 µg/mL (≈ 39.7 µM). Moreover, the MIC with E. coli 25922 is less than 0.03 µg/mL; against S. pneumoniae 1027, 2 µg/mL (≈ 4.96 µM). The MBC in the assay on A. baumannii A387 [4] (1st experiment) is 1 µg/mL (≈ 2.48 µM); in the assay on A. baumannii A387 [4] (2nd experiment) it was 4 µg/mL (≈ 9.92 µM); with A. baumannii A489 [8] (1st experiment) it was 2 µg/mL (≈ 4.96 µM); in the assay with A. baumannii A489 [8] (2nd experiment), 4 µg/mL (≈ 9.92 µM). Also, the MIC90 in the assay on B. thailandensis was less than 0.048 µg/mL.

The values are drawn from patent US10155021B2, “Antimicrobial 4-oxoquinolizines” (Emergent Product Development Gaithersburg Inc., priority 2011, dated 2018).
